IC50 data for seven molecules are collected here from ChEMBL document CHEMBL3397010, “Design, synthesis, and biological evaluation of air-stable nafuredin-γ analogs as complex I inhibitors” (Bioorg Med Chem, 2015).

The nature of the assay: Inhibition of electron transport protein complex 1 in Ascaris suum mitochondria assessed as reduction in rhodoquinol-fumarate reductase activity by measuring NADH oxidation using NADH, sodium fumarate and decyl-rhodoquinone.
What is called IC50 is the concentration that inhibits the measured activity by half. Regarding `CC(C)=CCC/C(C)=C/CC/C(C)=C/CC[C@@H](O)[C@]1(C)CCC(=O)O1`, the IC50 was 820 nM. Under `C/C(=C\CCC(C)C)CCCC/C=C/[C@@H](O)[C@]1(C)CCC(=O)O1` stands 340 nM; under `C/C(=C\CCC(C)C)C[C@@H](C)CC/C=C/[C@@H](O)[C@]1(C)CCC(=O)O1`, 300 nM; under `CC[C@H](C)CC/C=C(\C)C[C@@H](C)CC/C=C/[C@@H](O)[C@]1(C)CCC(=O)O1`, 550 nM. Under `CCc1ccc2ccc(Cc3cccc(/C=C/[C@@H](O)[C@]4(C)CCC(=O)O4)c3)cc2c1` stands 550 nM; under `CC[C@H](C)/C=C/C=C(\C)C[C@@H](C)/C=C/C=C/[C@@H](O)[C@]1(C)C=C(O)C(=O)O1`, 6 nM.

With `CC(C)=CCC/C(C)=C/CC/C(C)=C/CC[C@@H](O)[C@]1(C)CCCO1`, the IC50 stood at 500 nM.
